In the supplement of paper PMC10307832:

Experiments:
Test in all cases: relative viability (nuclei count vs DMSO), 5 days (fraction); higher = more cells survive
ABC-1 = tested on: ABC-1
In short: (§1)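 Medians of duplicate plates are given as relative viability. That measure is the nuclei count in treated wells divided by the count in vehicle wells. Counts were taken on 4× images of lung cancer cell lines in 1536-well plates, 5 days after pin-tool dosing the day after seeding with one drug alone or a fixed anchor-drug dose plus five library-drug doses (not always all listed) in √10 steps.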

CAL-12T = tested on: CAL-12T
In short: as §1

COR-L23 = tested on: COR-L23
In short: as §1

EKVX = tested on: EKVX
In short: as §1

H3255 = tested on: H3255
In short: as §1

HCC-15 = tested on: HCC-15
In short: as §1

HCC-827 = tested on: HCC-827
In short: as §1

LK-2 = tested on: LK-2
In short: as §1

NCI-H1355 = tested on: NCI-H1355
In short: as §1

NCI-H1437 = tested on: NCI-H1437
In short: as §1

NCI-H1563 = tested on: NCI-H1563
In short: as §1

NCI-H1650 = tested on: NCI-H1650
In short: as §1

NCI-H1651 = tested on: NCI-H1651
In short: as §1

NCI-H1734 = tested on: NCI-H1734
In short: as §1

NCI-H2228 = tested on: NCI-H2228
In short: as §1

NCI-H2405 = tested on: NCI-H2405
In short: as §1

NCI-H322M = tested on: NCI-H322M
In short: as §1

NCI-H520 = tested on: NCI-H520
In short: as §1

NCI-H661 = tested on: NCI-H661
In short: as §1

PC-14 = tested on: PC-14
In short: as §1

PC-3 [JPC-3] = tested on: PC-3 [JPC-3]
In short: as §1

RERF-LC-KJ = tested on: RERF-LC-KJ
In short: as §1

SK-MES-1 = tested on: SK-MES-1
In short: as §1

SW 1573 = tested on: SW 1573
In short: as §1

In the case of `C[C@@H]1CN(CC(=O)Nc2ccc3c(c2)Cc2cccc(-c4cc(=O)cc(N5CCOCC5)o4)c2S3)C[C@H](C)O1` + C[C@@H](Oc1cc(-c2cnn(C3CCNCC3)c2)cnc1N)c1c(Cl)ccc(F)c1Cl [Crizotinib] (partner 1 µM), the relative viability (ABC-1; first compound 0.1265 µM) is reported as 1.17, the relative viability (ABC-1; first compound 0.4 µM) is reported as 1.15 and the relative viability (ABC-1; first compound 4 µM) is reported as 0.723. For the same molecule, the relative viability (CAL-12T; first compound 0.04 µM) was 0.644, the relative viability (CAL-12T; first compound 0.1265 µM) was 0.526 and the relative viability (CAL-12T; first compound 0.4 µM) was 0.693. The relative viability (CAL-12T; first compound 4 µM) was 0.297, the relative viability (COR-L23; first compound 0.04 µM) was 0.678 and the relative viability (COR-L23; first compound 0.1265 µM) was 0.625. For the same molecule, the relative viability (COR-L23; first compound 0.4 µM) was 0.693, the relative viability (COR-L23; first compound 4 µM) was 0.516 and the relative viability (EKVX; first compound 0.04 µM) was 0.924. For the same molecule, the relative viability (EKVX; first compound 0.1265 µM) was 0.947, the relative viability (EKVX; first compound 0.4 µM) was 1.13 and the relative viability (EKVX; first compound 4 µM) was 0.876. The relative viability (H3255; first compound 0.04 µM) was 0.824, the relative viability (H3255; first compound 0.1265 µM) was 0.785 and the relative viability (H3255; first compound 0.4 µM) was 0.814. The relative viability (H3255; first compound 4 µM) was 0.719, the relative viability (HCC-15; first compound 0.04 µM) was 0.8 and the relative viability (HCC-15; first compound 0.1265 µM) was 0.75. For the same molecule, the relative viability (HCC-15; first compound 0.4 µM) was 0.831, the relative viability (HCC-15; first compound 4 µM) was 0.734 and the relative viability (HCC-827; first compound 0.04 µM) was 1. The relative viability (HCC-827; first compound 0.1265 µM) was 0.817, the relative viability (HCC-827; first compound 0.4 µM) was 0.929 and the relative viability (HCC-827; first compound 4 µM) was 0.983. The relative viability (LK-2; first compound 0.1265 µM) was 0.198, the relative viability (LK-2; first compound 0.4 µM) was 0.242 and the relative viability (LK-2; first compound 4 µM) was 0.191. It also gave a relative viability (NCI-H1355; first compound 0.04 µM) of 0.955, a relative viability (NCI-H1355; first compound 0.1265 µM) of 1.07 and a relative viability (NCI-H1355; first compound 0.4 µM) of 1.03. For the same molecule, the relative viability (NCI-H1355; first compound 4 µM) was 1.1, the relative viability (NCI-H1437; first compound 0.04 µM) was 0.986 and the relative viability (NCI-H1437; first compound 0.1265 µM) was 0.899. For the same molecule, the relative viability (NCI-H1437; first compound 0.4 µM) was 0.924, the relative viability (NCI-H1437; first compound 4 µM) was 0.778 and the relative viability (NCI-H1563; first compound 0.04 µM) was 0.852. The relative viability (NCI-H1563; first compound 0.1265 µM) was 0.849, the relative viability (NCI-H1563; first compound 0.4 µM) was 0.688 and the relative viability (NCI-H1563; first compound 4 µM) was 0.747. The relative viability (NCI-H1650; first compound 0.04 µM) was 0.991, the relative viability (NCI-H1650; first compound 0.1265 µM) was 0.959 and the relative viability (NCI-H1650; first compound 0.4 µM) was 1.1. The relative viability (NCI-H1650; first compound 4 µM) was 0.55, the relative viability (NCI-H1651; first compound 0.04 µM) was 0.842 and the relative viability (NCI-H1651; first compound 0.1265 µM) was 0.859. It also gave a relative viability (NCI-H1651; first compound 0.4 µM) of 0.903, a relative viability (NCI-H1651; first compound 4 µM) of 0.882 and a relative viability (NCI-H1734; first compound 0.04 µM) of 0.762. The relative viability (NCI-H1734; first compound 0.1265 µM) was 0.651, the relative viability (NCI-H1734; first compound 0.4 µM) was 0.627 and the relative viability (NCI-H1734; first compound 4 µM) was 0.663. For the same molecule, the relative viability (NCI-H2228; first compound 0.04 µM) was 0.568, the relative viability (NCI-H2228; first compound 0.1265 µM) was 0.394 and the relative viability (NCI-H2228; first compound 0.4 µM) was 0.283. For the same molecule, the relative viability (NCI-H2228; first compound 4 µM) was 0.341, the relative viability (NCI-H2405; first compound 0.04 µM) was 0.754 and the relative viability (NCI-H2405; first compound 0.1265 µM) was 0.855. The relative viability (NCI-H2405; first compound 0.4 µM) was 0.893, the relative viability (NCI-H2405; first compound 4 µM) was 0.8 and the relative viability (NCI-H322M; first compound 0.04 µM) was 0.599. The relative viability (NCI-H322M; first compound 0.1265 µM) was 0.863, the relative viability (NCI-H322M; first compound 0.4 µM) was 1.08 and the relative viability (NCI-H322M; first compound 4 µM) was 0.959. The relative viability (NCI-H520; first compound 0.04 µM) was 0.64, the relative viability (NCI-H520; first compound 0.1265 µM) was 0.711 and the relative viability (NCI-H520; first compound 0.4 µM) was 0.497. For the same molecule, the relative viability (NCI-H520; first compound 4 µM) was 0.534, the relative viability (NCI-H661; first compound 0.04 µM) was 1.07 and the relative viability (NCI-H661; first compound 0.1265 µM) was 1.01. The relative viability (NCI-H661; first compound 0.4 µM) was 1.02, the relative viability (NCI-H661; first compound 4 µM) was 0.885 and the relative viability (PC-14; first compound 0.04 µM) was 0.976. It also gave a relative viability (PC-14; first compound 0.1265 µM) of 0.982, a relative viability (PC-14; first compound 0.4 µM) of 0.859 and a relative viability (PC-14; first compound 4 µM) of 0.706. The relative viability (PC-3 [JPC-3]; first compound 0.04 µM) was 0.947, the relative viability (PC-3 [JPC-3]; first compound 0.1265 µM) was 0.936 and the relative viability (PC-3 [JPC-3]; first compound 0.4 µM) was 0.971. It also gave a relative viability (PC-3 [JPC-3]; first compound 4 µM) of 0.962, a relative viability (RERF-LC-KJ; first compound 0.04 µM) of 0.861 and a relative viability (RERF-LC-KJ; first compound 0.1265 µM) of 0.779. For the same molecule, the relative viability (RERF-LC-KJ; first compound 0.4 µM) was 0.909, the relative viability (RERF-LC-KJ; first compound 4 µM) was 0.722 and the relative viability (SK-MES-1; first compound 0.04 µM) was 1.08. The relative viability (SK-MES-1; first compound 0.1265 µM) was 0.991, the relative viability (SK-MES-1; first compound 0.4 µM) was 0.917 and the relative viability (SK-MES-1; first compound 4 µM) was 0.774. For the same molecule, the relative viability (SW 1573; first compound 0.04 µM) was 0.904, the relative viability (SW 1573; first compound 0.1265 µM) was 0.918 and the relative viability (SW 1573; first compound 0.4 µM) was 0.744. For the same molecule, the relative viability (SW 1573; first compound 4 µM) was 0.746.
